Biological target: TORC1 (TOR complex 1 kinase) (Saccharomyces cerevisiae, UniProt P35169)
Test: TORC1 in vitro kinase assay
Type: biochemical

Chain of TORC1 (TOR complex 1 kinase) (P35169 whole entry): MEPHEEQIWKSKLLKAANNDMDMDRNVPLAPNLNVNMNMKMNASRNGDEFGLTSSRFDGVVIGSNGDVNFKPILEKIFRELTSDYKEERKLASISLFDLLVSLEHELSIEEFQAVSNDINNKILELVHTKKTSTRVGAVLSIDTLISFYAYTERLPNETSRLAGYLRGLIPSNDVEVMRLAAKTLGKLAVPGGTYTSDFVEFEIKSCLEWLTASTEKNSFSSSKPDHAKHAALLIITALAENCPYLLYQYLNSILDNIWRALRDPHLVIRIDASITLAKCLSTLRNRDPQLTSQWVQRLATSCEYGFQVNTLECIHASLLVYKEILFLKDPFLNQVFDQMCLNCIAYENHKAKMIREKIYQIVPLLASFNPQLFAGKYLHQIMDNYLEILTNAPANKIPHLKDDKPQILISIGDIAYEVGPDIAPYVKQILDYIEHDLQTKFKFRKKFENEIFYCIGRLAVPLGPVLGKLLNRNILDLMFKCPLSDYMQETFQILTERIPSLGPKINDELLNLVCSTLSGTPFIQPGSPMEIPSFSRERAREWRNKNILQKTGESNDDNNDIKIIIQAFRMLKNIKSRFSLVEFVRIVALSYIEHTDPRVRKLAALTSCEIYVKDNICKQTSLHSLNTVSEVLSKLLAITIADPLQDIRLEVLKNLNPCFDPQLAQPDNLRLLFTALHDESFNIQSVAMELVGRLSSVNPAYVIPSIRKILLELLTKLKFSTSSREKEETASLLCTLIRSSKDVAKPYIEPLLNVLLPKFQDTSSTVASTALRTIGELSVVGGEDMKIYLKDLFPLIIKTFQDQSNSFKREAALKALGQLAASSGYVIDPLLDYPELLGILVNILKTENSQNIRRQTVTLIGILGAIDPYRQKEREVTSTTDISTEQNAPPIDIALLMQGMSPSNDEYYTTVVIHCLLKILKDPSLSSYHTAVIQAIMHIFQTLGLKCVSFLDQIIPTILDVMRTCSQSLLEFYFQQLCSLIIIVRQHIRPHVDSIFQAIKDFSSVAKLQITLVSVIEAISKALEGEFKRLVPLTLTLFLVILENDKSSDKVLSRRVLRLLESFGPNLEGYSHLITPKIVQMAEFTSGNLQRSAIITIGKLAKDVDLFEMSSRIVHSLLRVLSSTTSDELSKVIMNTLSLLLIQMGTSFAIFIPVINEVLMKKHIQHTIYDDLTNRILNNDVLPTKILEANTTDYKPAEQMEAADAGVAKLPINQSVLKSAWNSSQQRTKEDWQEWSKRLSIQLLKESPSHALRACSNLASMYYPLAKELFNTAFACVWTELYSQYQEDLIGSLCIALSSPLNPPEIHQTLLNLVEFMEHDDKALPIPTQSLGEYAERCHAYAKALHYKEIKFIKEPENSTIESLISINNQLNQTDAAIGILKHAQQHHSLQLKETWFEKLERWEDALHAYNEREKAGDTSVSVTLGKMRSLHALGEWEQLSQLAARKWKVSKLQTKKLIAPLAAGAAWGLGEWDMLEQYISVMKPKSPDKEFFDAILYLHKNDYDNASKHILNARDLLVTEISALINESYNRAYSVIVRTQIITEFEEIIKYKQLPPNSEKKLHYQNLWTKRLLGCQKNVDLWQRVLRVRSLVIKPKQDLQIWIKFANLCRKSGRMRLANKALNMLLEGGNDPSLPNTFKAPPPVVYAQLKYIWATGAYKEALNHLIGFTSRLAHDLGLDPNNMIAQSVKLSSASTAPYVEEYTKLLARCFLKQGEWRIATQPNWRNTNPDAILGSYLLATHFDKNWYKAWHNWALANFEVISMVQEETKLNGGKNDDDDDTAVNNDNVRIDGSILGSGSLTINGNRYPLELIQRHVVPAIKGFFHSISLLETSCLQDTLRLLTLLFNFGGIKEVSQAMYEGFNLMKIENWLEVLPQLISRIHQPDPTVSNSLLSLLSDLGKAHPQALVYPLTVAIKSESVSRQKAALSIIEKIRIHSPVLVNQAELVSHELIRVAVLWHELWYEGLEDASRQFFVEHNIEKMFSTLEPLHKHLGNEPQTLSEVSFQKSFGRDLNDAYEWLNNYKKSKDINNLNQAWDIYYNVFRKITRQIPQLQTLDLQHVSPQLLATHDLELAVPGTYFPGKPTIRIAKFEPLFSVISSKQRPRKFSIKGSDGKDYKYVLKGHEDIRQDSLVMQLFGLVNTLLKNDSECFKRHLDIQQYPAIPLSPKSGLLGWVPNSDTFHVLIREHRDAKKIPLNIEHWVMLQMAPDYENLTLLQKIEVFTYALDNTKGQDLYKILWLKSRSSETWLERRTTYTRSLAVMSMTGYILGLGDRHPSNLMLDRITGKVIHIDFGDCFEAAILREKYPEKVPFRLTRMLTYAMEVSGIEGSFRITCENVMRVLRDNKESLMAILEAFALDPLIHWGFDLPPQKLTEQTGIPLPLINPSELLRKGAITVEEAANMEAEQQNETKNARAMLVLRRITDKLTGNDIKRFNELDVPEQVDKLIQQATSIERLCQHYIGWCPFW
Chain of TORC1 (TOR complex 1 kinase) (P38873 whole entry partner): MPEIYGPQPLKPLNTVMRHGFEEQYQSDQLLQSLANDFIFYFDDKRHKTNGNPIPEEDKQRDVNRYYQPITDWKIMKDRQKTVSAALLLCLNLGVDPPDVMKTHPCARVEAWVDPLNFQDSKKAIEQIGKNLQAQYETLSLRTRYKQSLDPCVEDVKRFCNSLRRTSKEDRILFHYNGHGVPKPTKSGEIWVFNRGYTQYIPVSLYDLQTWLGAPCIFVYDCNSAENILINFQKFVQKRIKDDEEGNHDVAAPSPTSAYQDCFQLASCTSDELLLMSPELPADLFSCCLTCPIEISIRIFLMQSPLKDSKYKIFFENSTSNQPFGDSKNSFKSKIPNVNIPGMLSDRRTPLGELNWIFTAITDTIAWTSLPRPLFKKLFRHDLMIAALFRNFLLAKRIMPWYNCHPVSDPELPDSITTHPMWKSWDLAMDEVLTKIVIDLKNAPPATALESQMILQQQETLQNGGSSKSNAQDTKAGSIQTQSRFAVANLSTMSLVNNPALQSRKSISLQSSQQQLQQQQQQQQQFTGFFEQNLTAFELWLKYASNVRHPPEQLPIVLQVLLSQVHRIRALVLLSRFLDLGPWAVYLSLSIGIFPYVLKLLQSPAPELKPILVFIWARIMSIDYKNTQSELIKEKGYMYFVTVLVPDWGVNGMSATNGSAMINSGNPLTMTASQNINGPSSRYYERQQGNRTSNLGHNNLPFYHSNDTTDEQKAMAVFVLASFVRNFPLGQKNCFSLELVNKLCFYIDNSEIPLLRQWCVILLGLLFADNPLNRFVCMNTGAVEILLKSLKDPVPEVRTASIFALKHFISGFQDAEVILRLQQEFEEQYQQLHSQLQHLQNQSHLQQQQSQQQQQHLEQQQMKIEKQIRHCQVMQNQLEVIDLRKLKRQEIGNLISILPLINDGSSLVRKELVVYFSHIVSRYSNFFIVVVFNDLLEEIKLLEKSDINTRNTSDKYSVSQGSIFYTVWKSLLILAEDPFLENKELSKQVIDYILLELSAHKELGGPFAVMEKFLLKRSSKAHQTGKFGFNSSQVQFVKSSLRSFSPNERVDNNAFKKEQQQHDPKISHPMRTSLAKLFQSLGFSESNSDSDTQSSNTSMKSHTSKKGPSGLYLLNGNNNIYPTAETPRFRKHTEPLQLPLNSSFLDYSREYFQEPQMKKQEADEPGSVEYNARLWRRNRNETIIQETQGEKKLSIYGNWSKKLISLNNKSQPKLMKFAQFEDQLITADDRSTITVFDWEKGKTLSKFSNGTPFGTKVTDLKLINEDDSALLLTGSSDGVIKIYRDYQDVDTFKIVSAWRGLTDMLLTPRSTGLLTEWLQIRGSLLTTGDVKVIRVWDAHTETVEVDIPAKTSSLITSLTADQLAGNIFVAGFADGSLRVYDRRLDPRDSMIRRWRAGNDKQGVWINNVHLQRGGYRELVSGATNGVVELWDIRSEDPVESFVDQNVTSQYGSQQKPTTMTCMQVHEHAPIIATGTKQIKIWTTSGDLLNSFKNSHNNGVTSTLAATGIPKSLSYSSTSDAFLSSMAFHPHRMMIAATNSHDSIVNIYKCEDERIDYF

CNc1nc(N)c([N+](=O)[O-])c(Nc2cccc(F)c2)n1 [CID 3528206]
IC50: ~0.15 µM

Reference: publication PMC3331904 (2012)
